According to patent US20240174618A1, “SUBSTITUTED (2-HETEROARYLOXYPHENYL)SULFONATES, SALTS THEREOF AND THEIR USE AS HERBICIDAL AGENTS” (Bayer Aktiengesellschaft, priority 2021, published 2024):

Experiments:
Format in all cases: in vivo
[1] = test system: Abutilon theophrasti (ABUTH); assay: A. Herbicidal pre-emergence efficacy, ABUTH; conditions: scored visually after about 3 weeks vs untreated controls
Method in brief: (§1)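 Applied before emergence onto covering soil at rates of 1280 g/ha or less, using 600 L/ha spray water with 0.5% additive. Scoring: visual % efficacy after ~3 weeks, greenhouse.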

[2] = test system: Polygonum convolvulus (POLCO); assay: E. Herbicidal post-emergence efficacy, POLCO
Method: (§2) Seeds of monocotyledonous and dicotyledonous weeds and crop plants were placed in sandy loam in plastic or organic planting pots, covered with soil and cultivated in a greenhouse under controlled growth conditions. 2 to 3 weeks after sowing, the test plants were treated at the one-leaf stage. The compounds of the invention, formulated in the form of wettable powders (WP) or as emulsion concentrates (EC), were then sprayed onto the green parts of the plants as aqueous suspension or emulsion with addition of 0.5% additive at a water application rate of 600 l/ha (converted). After the test plants had been kept in the greenhouse under optimum growth conditions for about 3 weeks, the activity of the preparations was rated visually in comparison to untreated controls.
(§3) For example, • 100% efficacy=plants have died, • 0% action=like untreated control plants.
(§4) Tables E1a to E12b below show the effects of selected compounds of the general formula (I) according to table 1 on various harmful plants at an application rate corresponding to 320 g/ha or less, which were obtained by the experimental procedure mentioned above.

[3] = test system: Amaranthus retroflexus (AMARE); assay: A. Herbicidal pre-emergence efficacy, AMARE
Method in brief: as §1

[4] = test system: Echinochloa crus-galli (ECHCG); assay: E. Herbicidal post-emergence efficacy, ECHCG
Method: as §2, §3, §4

[5] = test system: Abutilon theophrasti (ABUTH); assay: E. Herbicidal post-emergence efficacy, ABUTH
Method in brief: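 Compounds applied at 320 g/ha or less as a foliar spray (600 l/ha, 0.5% additive) to one-leaf-stage greenhouse plants grown in sandy loam. Damage is visually scored in percent relative to untreated plants after about 3 weeks.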

[6] = test system: Poa annua (POAAN); assay: B. Herbicidal post-emergence efficacy, POAAN
Method in brief: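 Post-emergence foliar spray, at application rates of 1280 g/ha or less, on one-leaf-stage plants 2–3 weeks post-sowing, using aqueous WP or EC suspensions with 0.5% additive at 600 L/ha. Visual percent efficacy relative to untreated plants scored roughly 3 weeks later in the greenhouse.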

[7] = test system: Digitaria sanguinalis (DIGSA); assay: C. Herbicidal pre-emergence efficacy, DIGSA; conditions: scored after about 3 weeks
Text: Seeds of monocotyledonous and dicotyledonous weed plants and crop plants were placed in plastic or organic planting pots and covered with soil. The compounds of the invention, formulated in the form of wettable powders (WP) or as emulsion concentrates (EC), were then applied to the surface of the covering soil as aqueous suspension or emulsion with addition of 0.5% additive at a water application rate equivalent to 600 l/ha (converted). After the treatment, the pots were placed in a greenhouse and kept under good growth conditions for the test plants. After about 3 weeks, the efficacy of the preparations was scored visually in comparison with untreated controls as percentages. For example, • 100% efficacy=plants have died, • 0% efficacy=like untreated control plants.
Tables C1a to C14b below show the effects of selected compounds of the general formula (I) according to table 1 on various harmful plants at an application rate corresponding to 320 g/ha or less, which were obtained by the experimental procedure mentioned above.

SMILES	Pre-emergence efficacy against ABUTH ([1]; 80 g/ha)	Pre-emergence efficacy against ABUTH ([1]; 320 g/ha)	Pre-emergence efficacy against ABUTH ([1]; 1280 g/ha)	Post-emergence efficacy against POLCO in % ([2]; application rate 80 g/ha)	Post-emergence efficacy against POLCO in % ([2]; application rate 320 g/ha)	Pre-emergence efficacy against AMARE in % ([3]; 80 g/ha)	Pre-emergence efficacy against AMARE in % ([3]; 320 g/ha)	Pre-emergence efficacy against AMARE in % ([3]; 1280 g/ha)	Post-emergence efficacy against ECHCG in % ([4]; application rate 320 g/ha)	Post-emergence efficacy against ABUTH in % ([5]; application rate 320 g/ha)	Post-emergence efficacy against POAAN ([6]; 80 g/ha)	Post-emergence efficacy against POAAN ([6]; 320 g/ha)	Post-emergence efficacy against POAAN ([6]; 1280 g/ha)	Post-emergence efficacy against ECHCG in % ([4]; application rate 80 g/ha)	Pre-emergence efficacy against DIGSA ([7]; 80 g/ha)	Pre-emergence efficacy against DIGSA ([7]; 320 g/ha)	Post-emergence efficacy against ABUTH in % ([5]; application rate 80 g/ha)
O=S(=O)(CCCCl)Oc1ccccc1Oc1ncc(Cl)cn1 [Example I-2]	100%	100%	100%	100%	100%	100%	100%	100%	100%	100%	90%	100%	100%				
CCCS(=O)(=O)Oc1ccccc1Oc1ncc(Cl)cn1 [Example I-3]	100%	100%	100%		90%	100%	100%	100%	90%				90%				
O=S(=O)(CCCCl)Oc1ccccc1Oc1ncc(F)cn1 [Example I-5]	100%	100%	100%	90%	100%	100%	100%	100%	100%	90%		90%	100%	80%			
CCCCS(=O)(=O)Oc1ccccc1Oc1ncc(Cl)cn1 [Example I-6]	100%	100%	100%	90%	100%	100%	100%	100%	100%	90%			100%	90%	100%	100%	80%
CC(C)CS(=O)(=O)Oc1ccccc1Oc1ncc(Cl)cn1 [Example I-7, [2-(5-Chloropyrimidin-2-yl)oxyphenyl] 2-methylpropane-1-sulfonate]		90%	100%		100%	100%	100%	100%	100%	100%			90%	80%	100%	100%	
O=S(=O)(CCC(F)(F)F)Oc1ccccc1Oc1ncc(Cl)cn1 [Example I-8]	90%	90%	100%	90%	90%	90%	90%	100%	90%	100%			90%	90%	100%	100%	90%
O=S(=O)(CCl)Oc1ccccc1Oc1ncc(Cl)cn1 [Example I-9]			90%		90%	100%	100%	100%		80%			90%			100%	80%
O=S(=O)(CCCC(F)(F)F)Oc1ccccc1Oc1ncc(Cl)cn1 [Example I-10]	100%	100%	100%	90%	100%	100%	100%	100%	90%	100%			90%	90%	100%	100%	90%
Cc1cccc(OS(=O)(=O)CCCCl)c1Oc1ncc(Cl)cn1 [Example I-12]	90%	90%	100%		100%	100%	100%	100%	90%	90%			90%		90%	100%	
O=S(=O)(CCCCl)Oc1cccc(F)c1Oc1ncc(Cl)cn1 [Example I-13]		90%	100%		80%			100%					100%				
O=S(=O)(CCCCl)Oc1c(F)cccc1Oc1ncc(Cl)cn1 [Example I-14]	100%	100%	100%	80%	90%	100%	100%	100%	100%	90%	90%	100%	100%	90%			
CCS(=O)(=O)Oc1ccccc1Oc1ncc(Cl)cn1 [Example I-16]		100%	100%			100%	100%	100%					100%				
CCCCCS(=O)(=O)Oc1ccccc1Oc1ncc(Cl)cn1 [Example I-24]						90%	100%	100%	80%	90%		90%	100%		90%	100%	
CC(C)CCS(=O)(=O)Oc1ccccc1Oc1ncc(Cl)cn1 [Example I-25]			100%			90%	100%	100%	100%	80%		90%	100%		100%	100%	
Cc1cccc(Oc2ncc(Cl)cn2)c1OS(=O)(=O)CCCC(F)(F)F [Example I-28, 2-[(5-Chloropyrimidin-2-yl)oxy]-6-methylphenyl 4,4,4-trifluorobutane-1-sulfonate]	100%	100%	100%			100%	100%	100%				90%	100%				
Cc1cccc(Oc2ncc(Cl)cn2)c1OS(=O)(=O)CCC(F)(F)F [Example I-29]	90%	100%	100%			90%	100%	100%				90%	100%				
O=S(=O)(CCC(F)(F)F)Oc1c(Br)cccc1Oc1ncc(Cl)cn1 [Example I-31]		90%	90%			100%	100%	100%				90%	100%				
